Measurements reported in PubChem BioAssay AID1259411 (Chemical Carcinogenesis Research Information System (CCRIS), 2018).
The source made the active and inactive calls. No rule for the calls is given here.

Test system: rodent carcinogenicity bioassays, tumor incidence
Assay: CCRIS carcinogenicity studies
Procedure, shortened: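 Archive of carcinogenicity, mutagenicity, tumor promotion and tumor inhibition results drawn from journals, NCI reports and other sources, expert-reviewed; covers 1985-2011 and is no longer updated.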

Nc1c(Br)cc(Br)c2c1C(=O)c1ccccc1C2=O
carcinogen call (Species: MOUSE, Strain/Sex: B6C3F1/FEMALE, Route: ORAL, Dose: 0, 10000, 20000 PPM IN DIET FOR 104 WK (STUDY DURATION: 106 WK), Dose: 0, 10000, 20000 PPM IN DIET FOR 104 WK (STUDY DURATION: 106 WK), Tumor Site: Type of Lesion: LIVER: HEPATOCELLULAR ADENOMA, HEPATOCELLULAR CARCINOMA, FORESTOMACH: SQUAMOUS CELL ADENOMA, SQUAMOUS CELL CARCINOMA, LU, Tumor Site: Type of Lesion: LIVER: HEPATOCELLULAR ADENOMA, HEPATOCELLULAR CARCINOMA, FORESTOMACH: SQUAMOUS CELL ADENOMA, SQUAMOUS CELL CARCINOMA, LU): active; positive | carcinogen call (Species: MOUSE, Strain/Sex: B6C3F1/MALE, Route: ORAL, Dose: 0, 10000, 20000 PPM IN DIET FOR 104 WK (STUDY DURATION: 106 WK), Dose: 0, 10000, 20000 PPM IN DIET FOR 104 WK (STUDY DURATION: 106 WK), Tumor Site: Type of Lesion: LIVER: HEPATOCELLULAR ADENOMA, HEPATOCELLULAR CARCINOMA, HEPATOBLASTOMA, FORESTOMACH: SQUAMOUS CELL PAPILLOMA, SQUAMOUS): active; positive | carcinogen call (Species: RAT, Strain/Sex: F344/FEMALE, Route: ORAL, Dose: 0, 2000, 5000, 10000 PPM IN DIET FOR UP TO 104 WK (STUDY DURATION: 106 WK), Dose: 0, 2000, 5000, 10000 PPM IN DIET FOR UP TO 104 WK (STUDY DURATION: 106 WK), Tumor Site: Type of Lesion: LIVER: HEPATOCELLULAR ADENOMA, HEPATOCELLULAR CARCINOMA, HEPATOCHOLANGIOCARCINOMA, LARGE INTESTINE: ADENOMA, CARCINOMA;, Tumor Site: Type of Lesion: LIVER: HEPATOCELLULAR ADENOMA, HEPATOCELLULAR CARCINOMA, HEPATOCHOLANGIOCARCINOMA, LARGE INTESTINE: ADENOMA, CARCINOMA): active; positive | carcinogen call (Species: RAT, Strain/Sex: F344/MALE, Route: ORAL, Dose: 0, 2000, 5000, 10000 PPM IN DIET FOR UP TO 104 WK (STUDY DURATION: 106 WK), Dose: 0, 2000, 5000, 10000 PPM IN DIET FOR UP TO 104 WK (STUDY DURATION: 106 WK), Tumor Site: Type of Lesion: LIVER: HEPATOCELLULAR ADENOMA, HEPATOCELLULAR CARCINOMA, HEPATOCHOLANGIOCARCINOMA, LARGE INTESTINE: ADENOMA, CARCINOMA;, Tumor Site: Type of Lesion: LIVER: HEPATOCELLULAR ADENOMA, HEPATOCELLULAR CARCINOMA, HEPATOCHOLANGIOCARCINOMA, LARGE INTESTINE: ADENOMA, CARCINOMA): active; positive

CCN(CC)c1ccc2c(-c3ccccc3C(=O)O)c3ccc(=[N+](CC)CC)cc-3oc2c1
carcinogen call (Species: MOUSE, Strain/Sex: ICR/FEMALE, Route: DERMAL, Dose: 0, 1 MG IN 0.1 ML DISTILLED WATER 2/WK FOR A MEAN TOTAL DOSE OF 121.4 MG (STUDY DURATION: 18 MO)): inactive; negative | carcinogen call (Species: MOUSE, Strain/Sex: ICR/MALE, Route: DERMAL, Dose: 0, 1 MG IN 0.1 ML DISTILLED WATER 2/WK FOR A MEAN TOTAL DOSE OF 121.4 MG (STUDY DURATION: 18 MO)): inactive; negative

CC(=O)N[C@@H](C=O)[C@@H](O)[C@H](O)[C@H](O)CO
carcinogen call (Species: Rat, Strain/Sex: F344/Female, Route: Oral, Dose: 0, 2.5, 5% in diet for 104 wk): inactive; negative | carcinogen call (Species: Rat, Strain/Sex: F344/Male, Route: Oral, Dose: 0, 2.5, 5% in diet for 104 wk): inactive; negative
